Experimental data published in patent publication US20120101032A1, “NOVEL MACROCYCLIC INHIBITORS OF HEPATITIS C VIRUS REPLICATION” (priority 2010, published 2012).
Like-named read-outs stand apart in the source and are kept apart here.

Key:
NS3/NS4 complexes = NS3/NS4 complexes (Hepatitis C virus genotype 1a, UniProt P27958); test: biochemical; settings: NS3-NS4 activity; 23° C., pH 7.5, 25 μM NS4A peptide; read-out: IC50
Summary of the method: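 NS3/NS4 protease complexes were formed and compound inhibitory concentrations (IC50) measured at ambient temperature (23° C.) in 50 mM Tris-HCl, pH 7.5, with 15% glycerol, 0.6 mM LDAO, 25 μM NS4A peptide and 10 mM DTT. Replicon EC50 values come from a standard HCV replicon cell assay.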

hepatitis C replicon = hepatitis C replicon EC50 assay; assay type: cell-based; settings: Hepatitis C virus
Source text: NS3-NS4 inhibition activity can be determined using known assay methods.

[1] = hepatitis C replicon, read-out: EC50

Sequence of NS3/NS4 complexes (P27958 1027-1657, one chain of several): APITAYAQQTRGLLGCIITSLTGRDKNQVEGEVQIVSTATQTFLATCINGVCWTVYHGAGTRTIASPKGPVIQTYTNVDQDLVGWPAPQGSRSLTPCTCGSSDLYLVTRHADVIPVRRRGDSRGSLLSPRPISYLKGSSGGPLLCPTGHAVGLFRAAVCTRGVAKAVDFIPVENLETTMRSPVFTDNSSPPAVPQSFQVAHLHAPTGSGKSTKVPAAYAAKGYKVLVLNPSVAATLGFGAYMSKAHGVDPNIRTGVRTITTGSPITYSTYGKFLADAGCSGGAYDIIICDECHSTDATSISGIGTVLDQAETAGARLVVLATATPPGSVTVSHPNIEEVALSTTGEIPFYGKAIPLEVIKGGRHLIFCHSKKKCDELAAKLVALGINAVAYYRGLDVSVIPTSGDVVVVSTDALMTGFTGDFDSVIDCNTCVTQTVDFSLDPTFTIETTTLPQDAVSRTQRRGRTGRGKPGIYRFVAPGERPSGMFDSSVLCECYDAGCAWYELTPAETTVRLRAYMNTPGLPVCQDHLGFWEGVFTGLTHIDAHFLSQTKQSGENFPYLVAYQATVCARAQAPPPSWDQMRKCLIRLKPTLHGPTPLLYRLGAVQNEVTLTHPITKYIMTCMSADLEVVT

Structure (SMILES): CC#CC1(S(=O)(=O)NC(=O)[C@@]23C[C@H]2/C=C\CCCCC[C@H](NC(=O)OC(C)(C)C)C(=O)N2C[C@H](Oc4nc5c(-c6nc(C7CCCCC7)cs6)cccc5n4C(C)C)C[C@H]2C(=O)N3)CC1 [Compound 189]
- IC50 (NS3/NS4 complexes): < 0.01 µM
- EC50 (hepatitis C replicon; [1]): < 0.01 µM

Structure (SMILES): CC(C)n1c(O[C@@H]2C[C@H]3C(=O)N[C@]4(C(=O)NS(=O)(=O)C5CC5)C[C@H]4/C=C\CCCCC[C@H](NC(=O)OC(C)(C)C)C(=O)N3C2)nc2c(-c3nc(C4CCNCC4)cs3)cccc21 [Compound 190]
- IC50 (NS3/NS4 complexes): < 0.01 µM
- EC50 (hepatitis C replicon; [1]): < 0.01 µM

Structure (SMILES): CC(C)(C)OC(=O)N[C@H]1CCCCC/C=C\[C@@H]2C[C@@]2(C(=O)NS(=O)(=O)C2(C)CC2)NC(=O)[C@@H]2C[C@@H](Oc3nc4cccc(-c5nc(-c6ccccc6)cs5)c4s3)CN2C1=O [Compound 201]
- IC50 (NS3/NS4 complexes): < 0.01 µM
- EC50 (hepatitis C replicon; [1]): < 0.01 µM

Structure (SMILES): CC(C)(C)OC(=O)N[C@H]1CCCCC/C=C\[C@@H]2C[C@@]2(C(=O)NS(=O)(=O)C2(C)CC2)NC(=O)[C@@H]2C[C@@H](Oc3ncnc4c3CCCC4)CN2C1=O [Compound 301]
- IC50 (NS3/NS4 complexes): < 0.01 µM
- EC50 (hepatitis C replicon; [1]): 0.01 to 0.1 µM

Structure (SMILES): CC(C)(C)OC(=O)N[C@H]1CCCCC/C=C\[C@@H]2C[C@@]2(C(=O)NS(=O)(=O)C2(C)CC2)NC(=O)[C@@H]2C[C@@H](Oc3nc(-c4ccccc4)nc4c3CCCC4)CN2C1=O [Compound 302]
- IC50 (NS3/NS4 complexes): < 0.01 µM
- EC50 (hepatitis C replicon; [1]): < 0.01 µM

Structure (SMILES): CC(C)c1csc(-c2nc3c(c(O[C@@H]4C[C@H]5C(=O)N[C@]6(C(=O)NS(=O)(=O)C7(C)CC7)C[C@H]6/C=C\CCCCC[C@H](NC(=O)OC(C)(C)C)C(=O)N5C4)n2)CCCC3)n1 [Compound 303]
- IC50 (NS3/NS4 complexes): 0.01 to 0.1 µM
- EC50 (hepatitis C replicon): 0.01 to 0.1 µM

Structure (SMILES): CC(C)c1csc(-c2nc3c(c(O[C@@H]4C[C@H]5C(=O)N[C@]6(C(=O)NS(=O)(=O)C7(C)CC7)C[C@H]6/C=C\CCCCC[C@H](N)C(=O)N5C4)n2)CCCC3)n1 [Compound 304]
- IC50 (NS3/NS4 complexes): 0.01 to 0.1 µM
- EC50 (hepatitis C replicon): > 0.1 µM

Structure (SMILES): CC(C)(C)OC(=O)N[C@H]1CCCCC/C=C\[C@@H]2C[C@@]2(C(=O)NS(=O)(=O)C2(C)CC2)NC(=O)[C@@H]2C[C@@H](Oc3cc(-c4ccccc4)nc4c3CCCC4)CN2C1=O [Compound 402]
- IC50 (NS3/NS4 complexes): < 0.01 µM
- EC50 (hepatitis C replicon): < 0.01 µM

Structure (SMILES): CC(C)(C)OC(=O)N[C@H]1CCCCC/C=C\[C@@H]2C[C@@]2(C(=O)NS(=O)(=O)C2(C)CC2)NC(=O)[C@@H]2C[C@@H](Oc3ccnc4c3CCCC4)CN2C1=O [Compound 403]
- IC50 (NS3/NS4 complexes): < 0.01 µM
- EC50 (hepatitis C replicon): 0.01 to 0.1 µM

Structure (SMILES): CC(C)(C)OC(=O)N[C@H]1CCCCC/C=C\[C@@H]2C[C@@]2(C(=O)NS(=O)(=O)C2(C)CC2)NC(=O)[C@@H]2C[C@@H](Oc3nc(-c4ccccc4)cc4c3CCCC4)CN2C1=O [Compound 404]
- IC50 (NS3/NS4 complexes): < 0.01 µM
- EC50 (hepatitis C replicon; [1]): > 0.1 µM

Structure (SMILES): CC(C)c1csc(-c2cc3c(c(O[C@@H]4C[C@H]5C(=O)N[C@]6(C(=O)NS(=O)(=O)C7(C)CC7)C[C@H]6/C=C\CCCCC[C@H](NC(=O)OC(C)(C)C)C(=O)N5C4)n2)CCCC3)n1 [Compound 405]
- IC50 (NS3/NS4 complexes): < 0.01 µM
- EC50 (hepatitis C replicon; [1]): > 0.1 µM

Structure (SMILES): CC(C)c1csc(-c2cc(O[C@@H]3C[C@H]4C(=O)N[C@]5(C(=O)NS(=O)(=O)C6(C)CC6)C[C@H]5/C=C\CCCCC[C@H](NC(=O)OC(C)(C)C)C(=O)N4C3)c3c(n2)CCCC3)n1 [Compound 406]
- IC50 (NS3/NS4 complexes): < 0.01 µM
- EC50 (hepatitis C replicon; [1]): < 0.01 µM

Structure (SMILES): COc1ccc2c(O[C@@H]3C[C@H]4C(=O)N[C@]5(C(=O)NS(=O)(=O)C6(C)CC6)C[C@H]5/C=C\CCCCC[C@H](NC(=O)OC(C)(C)C)C(=O)N4C3)cc(C(C)C)nc2c1C [Compound 501]
- IC50 (NS3/NS4 complexes): < 0.01 µM
- EC50 (hepatitis C replicon; [1]): < 0.01 µM

Structure (SMILES): COc1ccc2c(O[C@@H]3C[C@H]4C(=O)N[C@]5(C(=O)NS(=O)(=O)C6(C)CC6)C[C@H]5/C=C\CCCCC[C@H](N)C(=O)N4C3)cc(C(C)C)nc2c1C [Compound 502]
- IC50 (NS3/NS4 complexes): < 0.01 µM
- EC50 (hepatitis C replicon; [1]): > 0.1 µM

Structure (SMILES): CC(C)c1csc(-c2cc(O[C@@H]3C[C@H]4C(=O)N[C@]5(C(=O)NS(=O)(=O)C6(C)CC6)C[C@H]5/C=C\CCCCC[C@H](NC(=O)OC(C)(C)C)C(=O)N4C3)ccn2)n1 [Compound 601]
- IC50 (NS3/NS4 complexes): < 0.01 µM
- EC50 (hepatitis C replicon; [1]): < 0.01 µM

Structure (SMILES): CC(C)c1csc(-c2cc(O[C@@H]3C[C@H]4C(=O)N[C@]5(C(=O)NS(=O)(=O)C6(C)CC6)C[C@H]5/C=C\CCCCC[C@H](N)C(=O)N4C3)ccn2)n1 [Compound 602]
- IC50 (NS3/NS4 complexes): < 0.01 µM
- EC50 (hepatitis C replicon; [1]): > 0.1 µM

Structure (SMILES): CC(C)(C)OC(=O)N[C@H]1CCCCC/C=C\[C@@H]2C[C@@]2(C(=O)NS(=O)(=O)C2(C)CC2)NC(=O)[C@@H]2C[C@@H](Oc3nc4cccc(-c5nc(C6CCCCC6)cs5)c4nc3C(F)(F)F)CN2C1=O [Compound 701]
- IC50 (NS3/NS4 complexes): < 0.01 µM
- EC50 (hepatitis C replicon; [1]): > 0.1 µM

Structure (SMILES): CC(C)(C)OC(=O)N[C@H]1CCCCC/C=C\[C@@H]2C[C@@]2(C(=O)NS(=O)(=O)C2(C)CC2)NC(=O)[C@@H]2C[C@@H](Oc3nc4c(-c5nc(C6CCCCC6)cs5)cccc4nc3C(F)(F)F)CN2C1=O [Compound 702]
- IC50 (NS3/NS4 complexes): < 0.01 µM
- EC50 (hepatitis C replicon; [1]): < 0.01 µM

Structure (SMILES): Cc1nc2cccc(-c3nc(C4CCCCC4)cs3)c2nc1O[C@@H]1C[C@H]2C(=O)N[C@]3(C(=O)NS(=O)(=O)C4(C)CC4)C[C@H]3/C=C\CCCCC[C@H](NC(=O)OC(C)(C)C)C(=O)N2C1 [Compound 703]
- IC50 (NS3/NS4 complexes): < 0.01 µM
- EC50 (hepatitis C replicon; [1]): < 0.01 µM
